# Results: ChEMBL document CHEMBL3108667, “Potent and selective inhibitors of CDPK1 from T. gondii and C. parvum based on a 5-aminopyrazole-4-carboxamide scaffold” (ACS Med Chem Lett, 2014)
# Experiments:
# cells = settings: Homo sapiens, CRL8155
# [1] = target: T1, Calmodulin-domain protein kinase 1 (Toxoplasma gondii, UniProt Q9BJF5)
# T1 sequence (Q9BJF5 whole entry): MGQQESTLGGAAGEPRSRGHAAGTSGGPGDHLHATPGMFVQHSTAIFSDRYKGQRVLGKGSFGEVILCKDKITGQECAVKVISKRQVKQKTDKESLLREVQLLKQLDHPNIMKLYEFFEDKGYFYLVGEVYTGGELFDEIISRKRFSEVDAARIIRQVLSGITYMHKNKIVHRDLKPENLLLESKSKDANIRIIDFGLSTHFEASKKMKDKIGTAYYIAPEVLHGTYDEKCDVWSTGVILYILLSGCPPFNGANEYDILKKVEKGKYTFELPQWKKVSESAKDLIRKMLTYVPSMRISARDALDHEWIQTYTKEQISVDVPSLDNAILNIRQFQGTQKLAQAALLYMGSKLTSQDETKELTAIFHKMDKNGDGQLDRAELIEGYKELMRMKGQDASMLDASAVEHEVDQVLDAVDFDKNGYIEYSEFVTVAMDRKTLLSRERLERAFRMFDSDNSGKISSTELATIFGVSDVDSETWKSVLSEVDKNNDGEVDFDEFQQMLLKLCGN
# in vivo [2] = settings: mouse, plasma, po, 10 mg/kg
# in vivo [3] = settings: mouse, po, 10 mg/kg
structure (smiles),measurement,setting,value
CCOc1ccc2cc(-c3nn(C(C)(C)C)c(N)c3C(N)=O)ccc2c1,EC50,cells,> 30 µM
NC(=O)c1c(-c2ccc3ccccc3c2)nn(CC(F)(F)F)c1N,EC50,cells,> 30 µM
CC(C)(C)Cn1nc(-c2ccc3ccccc3c2)c(C(N)=O)c1N,EC50,cells,> 40 µM
COc1ccc2cc(-c3nn(C(C)(C)C)c(N)c3C(N)=O)ccc2c1,EC50,cells,> 40 µM
CC(C)(C)n1nc(-c2ccc3c(N)n[nH]c3c2)c(C(N)=O)c1N,IC50,[1],0.04 µM
CC(C)(C)n1nc(-c2cnc3ccccc3c2)c(C(N)=O)c1N,EC50,cells,> 40 µM
CCOc1ccc2cc(-c3nn(C(C)(C)C)c(N)c3C(N)=O)cnc2c1,EC50,cells,> 30 µM
same,AUC,in vivo [2],41.7 µM·h
same,Cmax at 1 h,in vivo [3],10 µM
